From patent publication US11415579B2, “Assay for measuring a rate of reaction between a target and a ligand candidate” (Imperial College Innovations Ltd., priority 2016, dated 2022)
Values joined by “and” are separate entries in the source; they are usually repeats but may differ in a detail not shown here. Equal values may be shown once.

Experiments:
[1] = Kinetic thiol consumption assay with model thiol glutathione; format: physicochemical; parameters: Rate constant with glutathione (k(GSH)): unit not given here; settings: for Rate constant with glutathione (k(GSH)): 500 μM ligand, 5 μM thiol, phosphate buffer pH 8; for Rate constant with Glutathione: Protein: Glutathione, cysteine position NA, in h-1
Outline: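 First, 5 μM glutathione in degassed phosphate buffer (pH 8) receives immobilized TCEP beads (2% v/v). Then acrylamide is added and plates incubate 1 h at room temperature. Finally, fluorescence (380/470 nm) is normalized and fitted to first-order decay for rate constants.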

[2] = target: T1, human cyclin-dependent kinase 2 (Cdk2) (Homo sapiens, UniProt P24941); assay: Kinetic thiol consumption assay with wild type Cdk2 (C177); format: binding; parameters: key to Rate enhancement, Cdk2 WT: k(Cdk2) divided by k(model thiol); Rate constant with Cdk2 (k(Cdk2)): unit not given here; settings: for Rate constant with Cdk2 (k(Cdk2)): 500 μM ligand, 5 μM thiol, phosphate buffer pH 8; for Rate enhancement, Cdk2 WT: no additional mutations; for Rate constant with Cdk2 WT: Protein: Cdk2, cysteine position WT, in h^-1; for k(Cdk2)/k(Cdk2_mut) rate enhancement: model thiol Cdk2[C177A, F80C, K278C]; for k(Cdk2)/k(GSH) rate enhancement: model thiol glutathione
T1 construct: poly-histidine; made in house; host or cells: E. coli
Outline: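 Rate enhancement: first-order decay constant with Cdk2 over that with a model thiol. Thiols (5 μM, degassed phosphate buffer pH 8, immobilized TCEP) were incubated with acrylamides at room temperature, and thiol consumption followed by fluorescence at 380/470 nm, normalized to DMSO control. Cdk2 was His-tagged, E. coli-expressed, with one surface cysteine (C177).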

Cdk2[C177A, F80C, K278C] = target: T2, Cdk2[C177A, F80C, K278C] (Homo sapiens, UniProt P24941, C177A/F80C/K278C); assay: Kinetic thiol consumption assay with mutant Cdk2 as model thiol; format: binding; parameters: unit not given here; settings: 500 μM ligand, 5 μM thiol, phosphate buffer pH 8
T2 construct: poly-histidine; made in house; host or cells: E. coli
Outline: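 First-order rate constants were derived by exponential-decay fitting of DMSO/thiol-normalized fluorescence (380/470 nm) over time at room temperature. Thiol was 5 μM E. coli-expressed His-tagged Cdk2 mutant C177A/F80C/K278C in degassed pH 8 phosphate buffer containing 2% v/v TCEP beads.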

Cdk2(C177A, F80C) = target: T3, Cdk2(C177A, F80C) (Homo sapiens, UniProt P24941, C177A/F80C); assay: Kinetic thiol consumption assay with Cdk2 mutant F80C, incl. kobs versus concentration (Kd, k2); format: binding; parameters: key to Rate enhancement, Cdk2 F80C: Cdk2 rate constant divided by model-thiol rate constant; settings: for Rate enhancement, Cdk2 F80C / Rate constant with Cdk2 F80C: additional mutation C177A; for Rate constant with Cdk2 F80C: Protein: Cdk2, cysteine position F80C, in h^-1
T3 construct: poly-histidine; made in house; host or cells: E. coli
Outline: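 His-tagged Cdk2(C177A/F80C) from E. coli or model thiol, 5 μM in degassed phosphate buffer pH 8 with TCEP beads, reacted with acrylamide ligands; fluorescence (ex/em 380/470 nm) normalized to DMSO control and fitted to first-order decay for kobs. Kd and k2 obtained from hyperbolic fit of kobs versus ligand concentration.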

Cdk2(H71C) (C177A) = target: T4, Cdk2(H71C) (C177A) (Homo sapiens, UniProt P24941, C177A/H71C); assay: Kinetic thiol consumption assay with Cdk2 mutant H71C; format: binding; parameters: key to Rate enhancement, Cdk2 H71C: rate constant with Cdk2 ÷ rate constant with model thiol (fold); settings: for Rate enhancement, Cdk2 H71C / Rate constant with Cdk2 H71C: additional mutation C177A; for Rate constant with Cdk2 H71C: Protein: Cdk2, cysteine position H71C, in h^-1
T4 construct: poly-histidine; made in house; host or cells: E. coli
Outline: (§1)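 Read-out is fluorescence at 380/470 nm, taken after 1 h at room temperature and normalized to a DMSO/thiol-only control over time. Thiol (5 μM Cdk2 mutant or model thiol) was in degassed pH 8 phosphate buffer with 2% v/v TCEP beads. Acrylamide rate constants for Cdk2 were divided by those with model thiol.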

Cdk2(S276C) (C177A) = target: T5, Cdk2(S276C) (C177A) (Homo sapiens, UniProt P24941, C177A/S276C); assay: Kinetic thiol consumption assay with Cdk2 mutant S276C; format: binding; parameters: key to Rate enhancement, Cdk2 S276C: rate constant with Cdk2 ÷ rate constant with model thiol (fold); settings: for Rate enhancement, Cdk2 S276C / Rate constant with Cdk2 S276C: additional mutation C177A; for Rate constant with Cdk2 S276C: Protein: Cdk2, cysteine position S276C, in h^-1
T5 construct: poly-histidine; made in house; host or cells: E. coli
Outline: as §1

Cdk2(N272C) (C177A) = target: T6, Cdk2(N272C) (C177A) (Homo sapiens, UniProt P24941, C177A/N272C); assay: Kinetic thiol consumption assay with Cdk2 mutant N272C; format: binding; parameters: key to Rate enhancement, Cdk2 N272: rate constant with Cdk2 ÷ rate constant with model thiol (fold); settings: for Rate enhancement, Cdk2 N272: Cdk2 N272, additional mutation C177A; for Rate constant with Cdk2 N272C: Protein: Cdk2, cysteine position N272C, additional mutation C177A, in h^-1
T6 construct: poly-histidine; made in house; host or cells: E. coli
Outline: as §1

Cdk2(T182C) (C177A) = target: T7, Cdk2(T182C) (C177A) (Homo sapiens, UniProt P24941, C177A/T182C); assay: Kinetic thiol consumption assay with Cdk2 mutant T182C; format: binding; parameters: key to Rate enhancement, Cdk2 T182C: rate constant with Cdk2 ÷ rate constant with model thiol (fold); settings: for Rate enhancement, Cdk2 T182C / Rate constant with Cdk2 T182C: additional mutation C177A; for Rate constant with Cdk2 T182C: Protein: Cdk2, cysteine position T182C, in h^-1
T7 construct: poly-histidine; made in house; host or cells: E. coli
Outline: as §1

Cdk2(R122C) (C177A) = target: T8, Cdk2(R122C) (C177A) (Homo sapiens, UniProt P24941, C177A/R122C); assay: Kinetic thiol consumption assay with Cdk2 mutant R122C; format: binding; parameters: key to Rate enhancement, Cdk2 R122C: rate constant with Cdk2 ÷ rate constant with model thiol (fold); settings: for Rate enhancement, Cdk2 R122C / Rate constant with Cdk2 R122C: additional mutation C177A; for Rate constant with Cdk2 R122C: Protein: Cdk2, cysteine position R122C, in h-1
T8 construct: poly-histidine; made in house; host or cells: E. coli
Outline: as §1

Cdk2(S181C) (C177A) = target: T9, Cdk2(S181C) (C177A) (Homo sapiens, UniProt P24941, C177A/S181C); assay: Kinetic thiol consumption assay with Cdk2 mutant S181C; format: binding; parameters: key to Rate enhancement, Cdk2 S181C: rate constant with Cdk2 ÷ rate constant with model thiol (fold); settings: for Rate enhancement, Cdk2 S181C / Rate constant with Cdk2 S181C: additional mutation C177A; for Rate constant with Cdk2 S181C: Protein: Cdk2, cysteine position S181C, in h^-1
T9 construct: poly-histidine; made in house; host or cells: E. coli
Outline: as §1

Cdk2(F80C, C177A) [3] = target: T10, Cdk2(F80C, C177A) (Homo sapiens, UniProt P24941, C177A/F80C); assay: Intact protein mass spectrometry of labelling; format: binding; settings: after 2 hours of incubation
T10 construct: poly-histidine; made in house; host or cells: E. coli
Excerpt: Mass spectrometry and X-ray crystallography were used to validate the binding of a hit ligand identified by the present method.
From the screen of Cdk2(F80C, C177A), we identified EL1071 as a hit molecule (rate enhancement relative to GSH=60.5).

Cdk2(F80C, C177A) [4] = target: T10, Cdk2(F80C, C177A); assay: Kinase assay; format: biochemical; settings: Cdk2(F80C, C177A) labelled with ligand
Excerpt: Again, 1-Cdk2 refers to Cdk2(F80C, C177A) labelled with EL1071 (FIG. 10(c)). Finally, the EL1071-Cdk2(F80C, C177A) complex was crystallized and the structure determined by X-ray crystallography (FIG. 11). This confirms that the ligand binds to the cysteine residue at F80C and blocks the protein's active site leading to the observed inhibition.

[5] = test system: Cdk2 constructs (except Cdk(WT)); assay: Average of several thiols (Cdk2 constructs except WT) as model thiol; format: binding, human; settings: average over all Cdk2 constructs except Cdk2(WT)
Method: In Example 1 rate enhancements were calculated relative to the control thiol, glutathione.
As an example, the rate constant for ligand candidate EL1157 in reaction with all the Cdk2 constructs (except Cdk(WT)) were averaged and then compared to the rate constant with Cdk2(WT).

Rate constant with Cdk2 (k(Cdk2)) [2]	Rate enhancement, Cdk2 WT [2]	Rate constant with Cdk2 WT [2]	k(Cdk2)/k(Cdk2_mut) rate enhancement [2]	k(Cdk2)/k(GSH) rate enhancement [2]	Rate constant with Cdk2[C177A, F80C, K278C] (k(Cdk2_mut)) (Cdk2[C177A, F80C, K278C])	Rate enhancement, Cdk2 F80C (Cdk2(C177A, F80C))	Rate enhancement, Cdk2 H71C (Cdk2(H71C) (C177A))	Rate enhancement, Cdk2 S276C (Cdk2(S276C) (C177A))	Rate constant with Cdk2 S276C (Cdk2(S276C) (C177A))	Rate enhancement, Cdk2 N272 (Cdk2(N272C) (C177A))	Rate constant with Cdk2 N272C (Cdk2(N272C) (C177A))	Rate enhancement, Cdk2 T182C (Cdk2(T182C) (C177A))	Rate constant with Cdk2 T182C (Cdk2(T182C) (C177A))	Rate enhancement, Cdk2 R122C (Cdk2(R122C) (C177A))	Rate constant with Cdk2 R122C (Cdk2(R122C) (C177A))	Rate enhancement, Cdk2 S181C (Cdk2(S181C) (C177A))	Rate constant with Cdk2 S181C (Cdk2(S181C) (C177A))	Compound	Rate constant with glutathione (k(GSH)) [1]	Rate constant with Glutathione [1]	also measured
0.433	8.522	0.433	1.341	8.5 and 8.576	0.323	60.48	7.215	1.09	0.05538	0.6083	0.03091	7.764	0.3945	0.2848	0.01447	0.5036	0.02559	C=CC(=O)N1CCCc2cc(C(=O)OC)ccc21 [EL-1071]	0.051 and 0.05049	0.05081	hit classification, Example 1 ([2]; hits defined as kCdk2/kGSH>5.8 (3 standard deviations over the mean)): hit fragment; hit classification against Cdk2(F80C, C177A) (Cdk2(C177A, F80C)): hit molecule; rate enhancement relative to GSH (Cdk2(C177A, F80C); Cdk2(F80C, C177A) versus GSH): 60.5; Rate constant with Cdk2 F80C (Cdk2(C177A, F80C)): 3.073; Rate constant with Cdk2 H71C (Cdk2(H71C) (C177A)): 0.3666; modification of Cdk2(F80C, C177A) by intact protein mass spectrometry (Cdk2(F80C, C177A) [3]): completely monomodified; inhibition of kinase activity (Cdk2(F80C, C177A) [4]): completely inhibited
0.2006	2.982	0.2006	0.6586	1.592	0.3046	0.5847	0.3892	1.046	0.07038	0.04255	0.002862	2.337	0.1572	0.07164	0.004819	0.2053	0.01381	C=CC(=O)N1CCN(C(=O)OC(C)(C)C)c2ccccc21 [EL-1157]	0.126	0.06726	Rate constant k(Cdk2(WT)) [2]: 0.2006 h⁻¹; k(Cdk2(WT))/k(average) ([2]; average of multiple Cdk2 mutants as control thiol): 4.46; Rate constant k(Cdk2(F80C)) (Cdk2(C177A, F80C)): 0.0393 h⁻¹; Rate constant with Cdk2 F80C (Cdk2(C177A, F80C)): 0.03933; Rate constant k(Cdk2(H71C)) (Cdk2(H71C) (C177A)): 0.0261 h⁻¹; Rate constant with Cdk2 H71C (Cdk2(H71C) (C177A)): 0.02618; Rate constant k(Cdk2(S276C)) (Cdk2(S276C) (C177A)): 0.0704 h⁻¹; Rate constant k(Cdk2(N272C)) (Cdk2(N272C) (C177A)): 0.0029 h⁻¹; Rate constant k(Cdk2(T182C)) (Cdk2(T182C) (C177A)): 0.1572 h⁻¹; Rate constant k(Cdk2(R122C)) (Cdk2(R122C) (C177A)): 0.0048 h⁻¹; Rate constant k(Cdk2(S181C)) (Cdk2(S181C) (C177A)): 0.0138 h⁻¹; Rate constant k(average) [5]: 0.0449 h⁻¹
0.00103	0.3642	0.001028	0.2449	0.3619	0.00419	0	0	2.7205E−11	7.68E−14	4.534	0.0128	0.474	0.001338	0.9706	0.00274	0.7428	0.002097	C=CC(=O)NC(C)c1cccc(N2CCOCC2)c1 (stereo not shown) [EL-1153]	0.00284	0.002823	–
